From the RepoRT retention time repository (doi:10.1016/j.chroma.2015.11.014)

assay: RP, Agilent ZORBAX Eclipse Plus C18, 150 × 2.1 mm, 3.5 µm, 40 °C, 0.3 mL/min, estimated dead time 1.1 min; A: water + 0.1% formic acid; B: acetonitrile + 0.1% formic acid; gradient (min/%B) 0/2 1/2 2/20 16.5/98 22/98; details: stereoisomer not certain

Structure (SMILES)	LC retention time [min]
CC(C)c1ccccc1OP(=O)(Oc1ccccc1)Oc1ccccc1	15.8
CC(C)CC(C)Nc1ccc(Nc2ccccc2)cc1 (stereo unspecified)	9.19
C[N+](C)([O-])CCOC(c1ccccc1)c1ccccc1	8.07
CCCCCCCCCCCCCC(=O)OCC(O)COP(=O)([O-])OCC[N+](C)(C)C (stereo unspecified)	12.7
CC(O)C(=O)Nc1ccccc1 (stereo unspecified)	6.61
Cc1ccc(S(=O)(=O)O)cc1	5.4
COC(=O)C(=Cc1ccc(OC)cc1)C(=O)OC	11
CCOc1ccc(C[P+](c2ccccc2)(c2ccccc2)c2ccccc2)cc1	9.45
CNC(=O)Oc1ccccc1OC(C)C	9.47
Cc1cccc(C(=O)O)c1	8.59
CN(C)[P+](On1nnc2ccccc21)(N(C)C)N(C)C	5.97
Nc1ccc(S(=O)(=O)Nc2nccs2)cc1	5.37
CNCC1CCCCC1(O)c1cccc(OC)c1 (stereo unspecified)	6.25
Cc1ccccc1NC(=O)Nc1ccccc1C	11.1
NC(=O)CN1CCCC1=O	2.62
CCCC(=NOCC)C1=C(O)CC(CC(C)SCC)CC1=O (stereo unspecified)	16.1
O=C1NC(=O)C(c2ccccc2)(c2ccc(O)cc2)N1 (stereo unspecified)	7.26
CC12CCC3C4CCC(=O)C=C4CCC3C1CCC2O (stereo unspecified)	10.4
CC[N+](CC)(CC)Cc1ccccc1	5.09
NC(=O)N1c2ccccc2C=Cc2ccccc21	8.87
CCN(CC)C(=O)C(C)Oc1cccc2ccccc12 (stereo unspecified)	12.6
CC(C)(C)OC(=O)C[P+](c1ccccc1)(c1ccccc1)c1ccccc1	8.83
c1ccc2scnc2c1	8.78
COc1cccc(C2(O)CCCCC2C[N+](C)(C)[O-])c1 (stereo unspecified)	6.33
Nc1nc2ccccc2[nH]1	4.79
COC1=C(C)C(=O)C2=C(C1=O)C(COC(N)=O)C1(OC)C3NC3CN21 (stereo unspecified)	7.05
CC12CCC(=O)C=C1CCC1C2CCC2(C)C1CCC2(C)O (stereo unspecified)	11.6

Structure (SMILES)	LC retention time [min]
Cc1cc(NS(=O)(=O)c2ccc(N)cc2)no1	7.25
CN(C)c1cccc(O)c1	4.07
COc1ccc2c3c1OC1C(OC(C)=O)C=CC4C(C2)N(C)CCC341 (stereo unspecified)	6.21
CNNCc1ccc(C(=O)NC(C)C)cc1	4.91
Cc1cc(C2CC2)nc(Nc2ccccc2)n1	10.8
Cc1ccc(N)cc1N	2.14
O=C1c2ccccc2C(=O)C1c1ccccc1	14.2
Cc1ccc(C(=O)O)cc1	8.54
N#CC(C(=O)O)=C(c1ccccc1)c1ccccc1	13.7
CCNc1nc(NC(C)(C)C)nc(SC)n1	9.67
CCCCN1C=CC=CC1	4.24
Oc1ccc(Oc2ccccc2)cc1	11.1
O=c1[nH]c(=O)c2ccccc2[nH]1	5.39
CCOC(=O)Nc1ccc(N)cc1	4.86
O=c1[nH]c(=O)c2[nH]cnc2[nH]1	2.43
Cc1cc(C)c(C(=O)P(=O)(c2ccccc2)c2ccccc2)c(C)c1	14.1
O=C(OC1CC2CCC(C1)[N+]21CCCC1)C(O)(c1ccccc1)c1ccccc1 (stereo unspecified)	7.41
O=c1[nH]c(=S)c2[nH]cnc2[nH]1	4.02
CC(=O)Nc1cccc(O)c1	5.68
COc1ccc2c3c1OC1C(=O)C=CC4(O)C(C2)N(C)CCC314 (stereo unspecified)	5.37
CCCCCCCCCC[N+](C)(C)CCCCCCCCCC	13.4
CN(C)N=Nc1nc[nH]c1C(N)=O	4.47
NCC1(CC(=O)O)CCCCC1	4.88
COc1ccc(C(=O)c2ccccc2)c(O)c1	13.5
C=C(C)C([O-])=NCCC[N+](C)(C)C	4.7
CCC1CCCC(OC2CCC(N(C)C)C(C)O2)C(C)C(=O)C2=CC3C(C=CC4CC(OC5OC(C)C(OC)C(OC)C5OC)CC43)C2CC(=O)O1 (stereo unspecified)	10.4

The next lines start with the values.

LC retention time [min]	Structure (SMILES)
4.82	CNc1c(C)n(C)n(-c2ccccc2)c1=O
5.77	Cc1ccnc(NS(=O)(=O)c2ccc(N)cc2)n1
17.1	CCCCCCCCCCCCCC[P+](CCCCCC)(CCCCCC)CCCCCC
7.4	O=C1CC2(CCCCC2)C(=O)N1
9.03	CCCCCCCC[N+](C)(C)Cc1ccccc1
4.5	Cn1c(=O)[nH]c(=O)c2[nH]cnc21
4.67	CC1(C)CC(N(C=O)CCCCCCN(C=O)C2CC(C)(C)NC(C)(C)C2)CC(C)(C)N1
4.69	CC(C)(C)NCC(O)c1ccc(O)c(CO)c1 (stereo unspecified)
13.8	CC(C)(c1ccc(O)c([N+](=O)[O-])c1)c1ccc(O)c([N+](=O)[O-])c1
13.1	CCCCCC[N+](CCCCCC)(CCCCCC)CCCCCC
14.5	O=C1OCCOC(=O)c2ccc(cc2)C(=O)OCCOC(=O)c2ccc(cc2)C(=O)OCCOC(=O)c2ccc1cc2
7.01	CCCC[N+](C)(CCCC)CCCC
13.6	CCCCCCCCCCC(C(=O)OCCCCCC)[N+](C)(C)Cc1ccccc1 (stereo unspecified)
15.2	Cc1ccc(O)c(-n2nc3ccccc3n2)c1
7.89	O=C(O)c1ccccc1O
4.66	COc1cc(N)nc(OC)n1
6.57	CC1(C)CC(OC(=O)CCCCCCCCC(=O)OC2CC(C)(C)NC(C)(C)C2)CC(C)(C)N1
7.19	O=C([O-])CCC[P+](c1ccccc1)(c1ccccc1)c1ccccc1
8.55	CCCSc1ccc2nc(NC(=O)OC)[nH]c2c1
9.47	CSc1ccc2c(c1)N(CCC1CCCCN1C)c1ccccc1S2 (stereo unspecified)
10.2	CSc1nc(NC2CC2)nc(NC(C)(C)C)n1

LC retention time [min]	Structure (SMILES)
9.08	c1ccc2sc(NC3CCCCC3)nc2c1
8.5	CC(C(=O)O)c1ccc2cc(O)ccc2c1 (stereo unspecified)
6.58	COC(=O)Nc1nc2ccc(S(=O)c3ccccc3)cc2[nH]1 (stereo unspecified)
5.59	COC12C(COC(N)=O)C3=C(C(=O)C(C)=C(N)C3=O)N1CC1NC12 (stereo unspecified)
5.16	c1cncc(-c2nc3ccccc3[nH]2)c1
10.8	O=C(O)c1cc(O)c2c(c1)C(=O)c1cccc(O)c1C2=O
4.49	Cc1cc(C2CCCCC2)n(O)c(=O)c1
7.67	OCCN(CCO)c1nc(N2CCCCC2)c2nc(N(CCO)CCO)nc(N3CCCCC3)c2n1
4.71	CC1(C)SC2C(NC(=O)C(N)c3ccc(O)cc3)C(=O)N2C1C(=O)O (stereo unspecified)
6.5	O=S(=O)(O)c1nc2ccccc2s1
6.66	NC(=O)N1c2ccccc2C(O)C(O)c2ccccc21 (stereo unspecified)
9.65	CN(CC=CC#CC(C)(C)C)Cc1cccc2ccccc12
9.02	CC1CC2C(C(O)CC3(C)C2CCC3(O)C(=O)CO)C2(C)C=CC(=O)C=C12 (stereo unspecified)
11.8	CCNC(=O)C1CC(C)CCC1C(C)C (stereo unspecified)
6.65	CC12CC3CC(C)(C1)CC(N)(C3)C2
6.17	COc1ccc2nc(SCc3[nH]cc(C)c(=O)c3C)[nH]c2c1
9.47	CCCCCCCCCCCCN
14.9	CCCCCCCCCCCCCC[P+](CCCC)(CCCC)CCCC
9.5	O=C(c1ccccc1)c1ccc2n1CCC2C(=O)O (stereo unspecified)
7.08	COc1ncnc(NS(=O)(=O)c2ccc(N)cc2)c1OC
5.78	c1ccc2nc3ccccc3cc2c1

LC retention time [min]	Structure (SMILES)
6.32	COc1ccc(C(CN)C2(O)CCCCC2)cc1 (stereo unspecified)
13	CCCCCCCCCCCCCCCCN1C=CC=CC1
5.11	COc1cc(Cc2cnc(N)nc2N)cc(OC)c1OC
2.09	NC(=O)c1ccc[n+](C2OC(COP(=O)(O)OP(=O)([O-])OCC3OC(n4cnc5c(N)ncnc54)C(O)C3O)C(O)C2O)c1 (stereo unspecified)
16	CCCCCCCCCCCCCCCC[P+](CCCC)(CCCC)CCCC
7.21	O=C([O-])CCCC[P+](c1ccccc1)(c1ccccc1)c1ccccc1
9.35	CCCCC1=NC2(CCCC2)C(=O)N1Cc1ccc(-c2ccccc2-c2nn[nH]n2)cc1
4.55	CC(C)(C)NCC(O)c1cc(O)cc(O)c1 (stereo unspecified)
5.06	COCC(O)c1ccc(OCC(O)CNC(C)C)cc1 (stereo unspecified)
8.03	O=C(O)c1ccc(-c2ccccc2-c2nn[nH]n2)cc1
3.15	Nc1nc2c(ncn2C2OC(CO)C(O)C2O)c(=O)[nH]1 (stereo unspecified)
5.77	CCN(CC)CC(=O)Nc1c(C)cccc1C
11	Cc1ccccc1NC(=O)NC1CCCCC1
14.7	CCCCCCC[N+](CCCCCCC)(CCCCCCC)CCCCCCC
15.2	CCCCCCCCCCCCCCCC(=O)OCC(COP(=O)([O-])OCC[N+](C)(C)C)OC(=O)CCCC(=O)O (stereo unspecified)
9.97	CN(C)c1ccc(C(c2ccccc2)c2ccc(N(C)C)cc2)cc1
12.7	COc1ccc(C(=O)c2ccc(OC)cc2O)c(O)c1
16.2	CCC(C)C1OC2(C=CC1C)CC1CC(CC=C(C)C(OC3CC(OC)C(OC4CC(OC)C(NC(C)=O)C(C)O4)C(C)O3)C(C)C=CC=C3COC4C(O)C(C)=CC(C(=O)O1)C34O)O2 (stereo unspecified)
5.76	COC(=O)C(Cc1ccccc1)NC(=O)C(N)CC(=O)O (stereo unspecified)
4.48	CC(=C(CCO)SSC(CCO)=C(C)N(C=O)Cc1cnc(C)nc1N)N(C=O)Cc1cnc(C)nc1N
6.22	O=C1CN(N=Cc2ccc([N+](=O)[O-])o2)C(=O)N1
